Columns and labels:
[1] = tested on: tubulin in MDA-MB-231 cells; experiment: Tubulin staining and imaging (microtubular network); format: cell-based, human; conditions: 48 h; for effect on the microtubular network / tubulin: MDA-MB-231, 15.6 and 31 µM
Text: An established cytotoxic mechanism of action of some nitrogenous heteroaromatic compounds is through the inhibition of tubulin. Normal microtubule function is essential during mitosis for mitotic spindle formation to allow chromatid separation, without which cell replication would cease. In addition, microtubules are critical for maintaining the cytoskeletal integrity of normal cells. Currently used cytotoxic anti-neoplastic classes of drugs such as the taxanes and vinca alkaloids also either inhibit microtubule assembly or disassembly, thus preventing mitosis from occurring. Therefore, we investigated the effects of compounds 8 and 9 on the modulation of microtubule function by assessing their effect on tubulin.
MDA- MB 231 cells were treated with compounds 8 and 9 at two concentrations, 15.6 and 31.25 µM, for 48 h. The cells were stained with tubulin tracker™ Green (Cat #T34075) in HBSS for 30 min and nucleus stain HOECHST33342 (blue) for 5 min. The samples were imaged with Zeiss laser-scanning 780 microscopes.
Following the standard protocol, tubulin and microtubule-associated proteins (MAPs) were developed, accompanied by two cycles of polymerization and depolymerization. MDA-MB231 cells were treated with compounds 8 and 9 at concentrations of 31.25 and 15.6 µM for 48 h. Subsequently, the media was replaced with HBSS, and the MDA-MB231 cells were stained with tubulin tracker™ Green 51(Cat #T34075) for 30 min and HOECHST33342 for 5 min. The Zeiss laser-scanning 780 microscope was used for imaging.

KAIMRC2 cells = experiment: CellTiter-Glo assay, KAIMRC2; format: cell-based; conditions: Homo sapiens, 24 h, read-out: IC50 Breast Cancer KAIMRC2
Description: To validate the anti-proliferative activity of the imidazole derivatives, the compounds were tested against several cancer cell lines, which included breast cancer (MDA-MB-231, KAIMRC1, and KAIMRC2), colorectal cancer (HCT8), and acute promyelocytic leukemia cells (HL60). KAIMRC1 was isolated from a person with stage II-B breast cancer and is ER+/PR+ and HER2-. In comparison, KAIMRC2 was isolated from a person with metastasized breast cancer and is a triple-negative (ER-/PR-, and HER2-) tumor cell line.
The CellTiter-Glo assay (Promega™, Madison, WI, USA) was used to evaluate imidazole and oxazolone derivatives cytotoxicity against various cancer cell lines; MCF-10A, HL60, MDA-MB-231, and HCT8, purchased from ATCC, USA, except KAIMRC1 and KAIMRC2, which were isolated, established, and characterized in the core laboratory facility KAIMRC, Riyadh, Saudi Arabia. The cells were seeded in white 96-well plates at a density of 5 × 10^3 cells/well in a 100 μL of growth medium with various concentrations of each compound ranging from 0 to 250 µM. Cells were incubated at 37 °C for 24 h. Plates were equilibrated at RT for 30 min. A quantity of 100 µL of CellTiter-Glo reagent was added to each well and mixed for 2 min on an orbital shaker. Plates were incubated for 10 min at RT before measuring the luminescence using an Envision plate reader (Perkin Elmer). Half-maximal inhibitory concentration IC50 values (μM) were calculated for each imidazole derivative from the dose–response curve. The cytotoxic effect at a concentration <10 µM was considered strongly active and from 11 to 100 µM was considered moderately active, whereas above 100 µM was deemed non-active. Mitoxantrone was utilized as a positive control. Experiments were performed in triplicates.

MCF-10A cells = experiment: MTT assay, MCF-10A; format: cell-based, human; conditions: for IC50: Homo sapiens, MCF-10A, 24 h, 0 to 250 μM, read-out: IC50 Non-Malignant Breast Epithelial Cells (MCF-10A)
Description: To establish the cytotoxic effect of the nitrogenous derivatives, cells were treated with various concentrations of the drugs ranging from 0 to 250 μM. Following a 24 h incubation period, cell viability was assessed using the MTT assay. Mitoxantrone served as a positive control to evaluate growth inhibition. Since heterogeneity is a hallmark of cancer, the study included cell lines with diverse genomic and proteomic profiles. […] In this regard, further optimization would be required to increase the selective therapeutic potential of compound 9. To determine whether the anti-proliferative effect of the nitrogen derivatives could be translated to other malignancies, we tested the cytotoxic effect on the HCT8 (colorectal cancer) cell line. HCT8 is an adenocarcinoma driven by the Kirsten Rat Sarcoma (KRAS) mutation, unlike MCF-10A [28].
The MTT assay was utilized to examine the imidazole derivatives’ anti-proliferative activity against MCF-10A, MDA-MB-231, and HCT8 cell lines, purchased from ATCC, USA [47]. Firstly, 5 × 10^3 cells/well were seeded in a 96-well plate in 100 μL of growth medium and were subsequently cultured overnight with various concentrations of each compound ranging from 0 to 250 µM [48]. The media was aspirated, and 50 µL of serum-free media and 50 µL of MTT solution were added to each well. Next, cells were incubated at 37 °C for 3 h, then 150 µL of MTT solvent was added into each well. After that, plates were wrapped in foil and agitated for 15 min on an orbital shaker. Finally, the absorbance was measured within 1 h at OD590 nm. Half-maximal inhibitory concentration IC50 values (μM) were calculated for each compound from the dose–response curve. Experiments were performed in triplicates.

SMILES | effect on the microtubular network / tubulin [1] | IC50 (KAIMRC2 cells) [µM] | IC50 in MCF-10A relative to MDA-MB231 (cytotoxic selectivity) (MCF-10A cells) | IC50 (MCF-10A cells) [µM] | microtubule inhibition ([1]; MDA-MB-231, 31 µM)
O=C1/C(=C/c2ccccc2)N=C(c2ccccc2)N1Nc1ccc([N+](=O)[O-])cc1[N+](=O)[O-] [Compound 8] | no effect on tubulin | 31.6 | six-fold higher | 30.7 | –
COc1cccc(/C=C2\N=C(c3ccccc3)N(Nc3ccc([N+](=O)[O-])cc3[N+](=O)[O-])C2=O)c1 [Compound 9] | interfered with the microtubular network | 27.1 | – | 9.52 | nearly complete microtubule inhibition

Reference: article PMC9029529, “Distinct Mechanisms of Cytotoxicity in Novel Nitrogenous Heterocycles: Future Directions for a New Anti-Cancer Agent” (Molecules, 2022)
